{"source": "PubChem BioAssay (NCI)", "test_in_all_cases": "DTP human tumour cell line panel, 48 h", "key": {"HOP-92 NSCLC": {"system": "HOP-92 NSCLC"}, "NCI-H23 lung": {"system": "NCI-H23 lung"}, "HS 578T breast": {"system": "HS 578T breast"}, "M14 melanoma": {"system": "M14 melanoma"}, "A549 NSCLC": {"system": "A549 NSCLC"}, "MALME-3M melanoma": {"system": "MALME-3M melanoma"}, "786-0 renal": {"system": "786-0 renal"}, "ACHN renal": {"system": "ACHN renal"}, "COLO 205 colon": {"system": "COLO 205 colon"}, "SF-295 CNS": {"system": "SF-295 CNS"}, "TK-10 renal": {"system": "TK-10 renal"}, "CCRF-CEM leukemia": {"system": "CCRF-CEM leukemia"}, "HT29 colon": {"system": "HT29 colon"}, "OVCAR-8 ovarian": {"system": "OVCAR-8 ovarian"}, "HCT-15 colon": {"system": "HCT-15 colon"}, "MDA-N": {"system": "MDA-N"}, "LOX IMVI melanoma": {"system": "LOX IMVI melanoma"}, "CAKI-1 renal": {"system": "CAKI-1 renal"}, "RPMI-8226 leukemia": {"system": "RPMI-8226 leukemia"}, "EKVX NSCLC": {"system": "EKVX NSCLC"}, "MOLT-4 leukemia": {"system": "MOLT-4 leukemia"}, "MDA-MB-435": {"system": "MDA-MB-435"}, "HOP-62 NSCLC": {"system": "HOP-62 NSCLC"}, "IGROV1 ovarian": {"system": "IGROV1 ovarian"}, "SNB-75 CNS": {"system": "SNB-75 CNS"}, "HCC-2998 colon": {"system": "HCC-2998 colon"}, "DU-145 prostate": {"system": "DU-145 prostate"}, "OVCAR-5 ovarian": {"system": "OVCAR-5 ovarian"}, "HCT-116 colon": {"system": "HCT-116 colon"}, "PC-3 prostate": {"system": "PC-3 prostate"}, "NCI-H522 lung": {"system": "NCI-H522 lung"}, "UACC-257 melanoma": {"system": "UACC-257 melanoma"}, "SF-539 CNS": {"system": "SF-539 CNS"}, "MCF7 breast": {"system": "MCF7 breast"}, "MDA-MB-231 breast": {"system": "MDA-MB-231 breast"}, "SK-MEL-5 melanoma": {"system": "SK-MEL-5 melanoma"}, "SN12C renal": {"system": "SN12C renal"}, "U251 CNS": {"system": "U251 CNS"}, "UO-31 renal": {"system": "UO-31 renal"}, "NCI-H460 lung": {"system": "NCI-H460 lung"}, "K-562 leukemia": {"system": "K-562 leukemia"}, "SK-MEL-2 melanoma": {"system": "SK-MEL-2 melanoma"}, "SNB-19 CNS": {"system": "SNB-19 CNS"}, "UACC-62 melanoma": {"system": "UACC-62 melanoma"}, "OVCAR-3 ovarian": {"system": "OVCAR-3 ovarian"}, "SR leukemia": {"system": "SR leukemia"}, "RXF 393 renal": {"system": "RXF 393 renal"}, "SW-620 colon": {"system": "SW-620 colon"}, "SK-OV-3 ovarian": {"system": "SK-OV-3 ovarian"}, "SF-268 CNS": {"system": "SF-268 CNS"}, "KM12 colon": {"system": "KM12 colon"}, "NCI/ADR-RES ovarian": {"system": "NCI/ADR-RES ovarian"}, "SK-MEL-28 melanoma": {"system": "SK-MEL-28 melanoma"}, "HL-60(TB) leukemia": {"system": "HL-60(TB) leukemia"}, "OVCAR-4 ovarian": {"system": "OVCAR-4 ovarian"}, "NCI-H226 lung": {"system": "NCI-H226 lung"}}, "note": "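These data come from cells grown in 96-well plates and exposed to compound for 48 hours at five concentrations. TGI denotes the concentration required for complete inhibition of growth.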"}
{"smiles": "O=C1C(Br)=CC2(C=C1Br)CCNC1=C2C(=O)c2cccnc2C1=O", "values": [{"measurement": "TGI", "setting": "HOP-92 NSCLC", "result": 30.2, "unit": "µM"}, {"measurement": "TGI", "setting": "NCI-H23 lung", "result": 18.2, "unit": "µM"}, {"measurement": "TGI", "setting": "HS 578T breast", "result": 45.3, "unit": "µM"}, {"measurement": "TGI", "setting": "M14 melanoma", "result": 21.3, "unit": "µM"}, {"measurement": "TGI", "setting": "A549 NSCLC", "result": 30.1, "unit": "µM"}, {"measurement": "TGI", "setting": "MALME-3M melanoma", "result": 21.5, "unit": "µM"}, {"measurement": "TGI", "setting": "786-0 renal", "result": 29.3, "unit": "µM"}, {"measurement": "TGI", "setting": "ACHN renal", "result": 48.9, "unit": "µM"}, {"measurement": "TGI", "setting": "COLO 205 colon", "result": 30.1, "unit": "µM"}, {"measurement": "TGI", "setting": "SF-295 CNS", "result": 21, "unit": "µM"}, {"measurement": "TGI", "setting": "TK-10 renal", "result": 35.9, "unit": "µM"}, {"measurement": "TGI", "setting": "CCRF-CEM leukemia", "result": 25.5, "unit": "µM"}, {"measurement": "TGI", "setting": "HT29 colon", "result": 56.7, "unit": "µM"}, {"measurement": "TGI", "setting": "OVCAR-8 ovarian", "result": 32.4, "unit": "µM"}, {"measurement": "TGI", "setting": "HCT-15 colon", "result": 22.6, "unit": "µM"}, {"measurement": "TGI", "setting": "MDA-N", "result": 3.46, "unit": "µM"}, {"measurement": "TGI", "setting": "LOX IMVI melanoma", "result": 18.9, "unit": "µM"}, {"measurement": "TGI", "setting": "CAKI-1 renal", "result": 32.3, "unit": "µM"}, {"measurement": "TGI", "setting": "RPMI-8226 leukemia", "result": 36.9, "unit": "µM"}, {"measurement": "TGI", "setting": "EKVX NSCLC", "result": 28.5, "unit": "µM"}, {"measurement": "TGI", "setting": "MOLT-4 leukemia", "result": 24.9, "unit": "µM"}, {"measurement": "TGI", "setting": "MDA-MB-435", "result": 3.33, "unit": "µM"}, {"measurement": "TGI", "setting": "HOP-62 NSCLC", "result": 21.3, "unit": "µM"}, {"measurement": "TGI", "setting": "IGROV1 ovarian", "result": 21.8, "unit": "µM"}, {"measurement": "TGI", "setting": "SNB-75 CNS", "result": 27.1, "unit": "µM"}, {"measurement": "TGI", "setting": "HCC-2998 colon", "result": 31.9, "unit": "µM"}, {"measurement": "TGI", "setting": "DU-145 prostate", "result": 23.5, "unit": "µM"}, {"measurement": "TGI", "setting": "OVCAR-5 ovarian", "result": 33.1, "unit": "µM"}, {"measurement": "TGI", "setting": "HCT-116 colon", "result": 26.4, "unit": "µM"}, {"measurement": "TGI", "setting": "PC-3 prostate", "result": 39.7, "unit": "µM"}, {"measurement": "TGI", "setting": "NCI-H522 lung", "result": 13.9, "unit": "µM"}, {"measurement": "TGI", "setting": "UACC-257 melanoma", "result": 21.3, "unit": "µM"}, {"measurement": "TGI", "setting": "SF-539 CNS", "result": 20.9, "unit": "µM"}, {"measurement": "TGI", "setting": "MCF7 breast", "result": 41.3, "unit": "µM"}, {"measurement": "TGI", "setting": "MDA-MB-231 breast", "result": 31.1, "unit": "µM"}, {"measurement": "TGI", "setting": "SK-MEL-5 melanoma", "result": 12.8, "unit": "µM"}, {"measurement": "TGI", "setting": "SN12C renal", "result": 25.1, "unit": "µM"}, {"measurement": "TGI", "setting": "U251 CNS", "result": 35.6, "unit": "µM"}, {"measurement": "TGI", "setting": "UO-31 renal", "result": 68.5, "unit": "µM"}, {"measurement": "TGI", "setting": "NCI-H460 lung", "result": 19.8, "unit": "µM"}, {"measurement": "TGI", "setting": "K-562 leukemia", "result": 6.84, "unit": "µM"}, {"measurement": "TGI", "setting": "SK-MEL-2 melanoma", "result": 10.9, "unit": "µM"}, {"measurement": "TGI", "setting": "SNB-19 CNS", "result": 20, "unit": "µM"}, {"measurement": "TGI", "setting": "UACC-62 melanoma", "result": 12.9, "unit": "µM"}, {"measurement": "TGI", "setting": "OVCAR-3 ovarian", "result": 17.9, "unit": "µM"}, {"measurement": "TGI", "setting": "SR leukemia", "result": 18.5, "unit": "µM"}, {"measurement": "TGI", "setting": "RXF 393 renal", "result": 21.3, "unit": "µM"}, {"measurement": "TGI", "setting": "SW-620 colon", "result": 27.3, "unit": "µM"}, {"measurement": "TGI", "setting": "SK-OV-3 ovarian", "result": 31.8, "unit": "µM"}, {"measurement": "TGI", "setting": "SF-268 CNS", "result": 32.2, "unit": "µM"}, {"measurement": "TGI", "setting": "KM12 colon", "result": 35.8, "unit": "µM"}, {"measurement": "TGI", "setting": "NCI/ADR-RES ovarian", "result": 49.1, "unit": "µM"}, {"measurement": "TGI", "setting": "SK-MEL-28 melanoma", "result": 29.3, "unit": "µM"}, {"measurement": "TGI", "setting": "HL-60(TB) leukemia", "result": 15.8, "unit": "µM"}, {"measurement": "TGI", "setting": "OVCAR-4 ovarian", "result": 31.2, "unit": "µM"}, {"measurement": "TGI", "setting": "NCI-H226 lung", "result": 36.9, "unit": "µM"}]}
